This assay concerns CCl4-induced liver damage. In words: effect on CCl4-induced liver damage in rats (serum transaminase s-GOT and s-GPT). It counts as in vivo, Male wistar rats. The settings on record: for serum transaminase s-GPT / serum transaminase s-GOT / s-GPT (inhibitory %) / s-GOT (inhibitory %): 300 mg/Kg orally, 60 min before CCl4 0.25 ml/Kg i.p., 24 h after CCl4; for serum transaminase s-GPT / serum transaminase s-GOT: mean ± standard deviation; for effect on liver damage: result in words. The text has this: Generally, the effect of a certain compound on liver damage is examined by administering it to experimental animals before a liver damage inducer such as carbon tetrachloride, thioacetamide, bromobenzene, paracetamol, D-galactosamine, etc. Carbon tetrachloride (CCl4)-induced liver damage is commonly used as the model. The mechanism to induce liver damage is presumed as follows (Biochemical Pharmacology 21, 49 (1972), ibid., 25, 2163 (1976)). In this invention, the effect of the compounds were examined against CCl4 -induced liver damage using serum transaminase activities (s-GOT and s-GPT) as a parameter. Male wistar rats (6 animals per group), weighing about 170-200 g, fasted for 17 hours, were used in the experiments. Test compounds were given orally at a dose of 300 mg/Kg, and 60 minutes later CCl4 was administered intraperitoneally at a dose of 0.25 ml/Kg (5 ml/Kg as a 5%(v/v)solution in olive oil). As the control, olive oil only was given intraperitoneally at a dose of 5 ml/Kg. All animals were killed 24 hours after CCl4 administration and their s-GOT and s-GPT activities were determined.

Where [1] appears, read: Table I, vs control 11460 ± 1490.
Where [2] appears, read: Table II, vs control 6400 ± 2590.
The mark [3] stands for this setting: Table II, vs control 13950 ± 4030.

Take `CCC(=O)SCCNC(=O)CCNC(=O)OCc1ccccc1` [compound No. 2, 3-(Benzyloxycarbonylamino)-N-(2-propionylthioethyl)-propionamide]: under “Table I, control 5100 ± 405”, the “serum transaminase s-GPT” value stood at 1720 ± 613 Karmen unit/ml. The “serum transaminase s-GOT” value (Table I, control 11460 ± 1490) came out at 3550 ± 1150 Karmen unit/ml. Moreover, the “s-GPT (inhibitory %)” value (Table I, vs control 5100 ± 405) stood at 66%. Further, the “s-GOT (inhibitory %)” value under setting [1] was determined as 69%.

`Cl.NCCC(=O)NCCS` [compound No. 4, 3-amino-N-(2-mercaptoethyl)propionamide hydrochloride]: the “serum transaminase s-GPT” value (Table II, control 6400 ± 2590) is 1990 ± 1010 Karmen unit/ml. The “serum transaminase s-GOT” value (Table II, control 13950 ± 4030) stood at 4690 ± 2490 Karmen unit/ml. Moreover, the “s-GPT (inhibitory %)” value under setting [2] was 69%. Moreover, the “s-GOT (inhibitory %)” value under setting [3] was 67%.

Take `CC(=O)NCCC(=O)NCCSC(C)=O` [compound No. 6, 3acetylamino-N--(2acetylthioethyl)propionamide]: the “effect on liver damage” value is “superior effect on liver-damage”. Besides, for the setting “Table II, control 6400 ± 2590”, the “serum transaminase s-GPT” value is 1730 ± 800 Karmen unit/ml. Further, the “serum transaminase s-GOT” value (Table II, control 13950 ± 4030) amounted to 3370 ± 1360 Karmen unit/ml. In addition, under setting [2], the “s-GPT (inhibitory %)” value is on record as 73%. Besides, under setting [3], the “s-GOT (inhibitory %)” value was 76%.

As to `O=C(CCNC(=O)OCc1ccccc1)NCCS` [compound No. 5, 3-(benzyloxycarbonylamino)-N-(2-mercaptoethyl)propionamide], the “effect on liver damage” value is listed as “superior effect on liver-damage”. In addition, the “serum transaminase s-GPT” value (Table II, control 6400 ± 2590) is given as 1900 ± 1640 Karmen unit/ml. For the same compound, the “serum transaminase s-GOT” value (Table II, control 13950 ± 4030) is 4450 ± 4430 Karmen unit/ml. In addition, the “s-GPT (inhibitory %)” value under setting [2] is listed as 71%. For the same compound, under setting [3], the “s-GOT (inhibitory %)” value turned out to be 69%.

`O=C(CCNC(=O)c1ccccc1)NCCSC(=O)c1ccccc1` [compound No. 3, 3-Benzoylamino-N-(2-benzoylthioethyl)propionamide]: the “serum transaminase s-GPT” value (Table I, control 5100 ± 405) is 2440 ± 960 Karmen unit/ml. Further, the “serum transaminase s-GOT” value (Table I, control 11460 ± 1490) worked out at 6150 ± 2990 Karmen unit/ml. For the same compound, the “s-GPT (inhibitory %)” value (Table I, vs control 5100 ± 405) was 52%. Further, the “s-GOT (inhibitory %)” value under setting [1] is listed as 46%.

With `CC(=O)SCCNC(=O)CCNC(=O)OCc1ccccc1` [compound No. 1, N-(2-Acetylthioethyl)-3-(benzyloxycarbonylamino)propionamide], under “Table I, control 5100 ± 405”, the “serum transaminase s-GPT” value is 2590 ± 731 Karmen unit/ml. The “serum transaminase s-GOT” value (Table I, control 11460 ± 1490) was determined as 5250 ± 1330 Karmen unit/ml. Further, the “s-GPT (inhibitory %)” value (Table I, vs control 5100 ± 405) is listed as 49%. Moreover, the “s-GOT (inhibitory %)” value under setting [1] is 54%.

Take `NCCC(=O)NCCS` [β-aletheine, N-β-Alanyl-2-mercaptoethylamine]: the “effect on liver damage” value was “excellent suppressive effect on liver damage”.

The values are drawn from US4552765A, “Aletheine derivatives” (Santen Pharmaceutical Co., Ltd., priority 1982, dated 1985).
